US5780441A, “Sphingoglycolipid compounds and therapeutic uses thereof” (Kirin Beer Kabushiki Kaisha, priority 1993, dated 1998)

Columns and labels:
[1] = system: P388 mouse leukemia cells; assay: Life-span-prolonging (anti-tumor) effect on mice subcutaneously inoculated with P388 mouse leukemia cells; assay type: in vivo, mouse (CDF1 female); conditions: for Survival days ave. ± s. d. / response vs control in vivo at 0.1 mg/kg: 0.1 mg/kg i.v. on days 1, 5 and 9; for Survival days ave. ± s. d.: all marked ** (p < 0.01); for response vs control in vivo at 0.1 mg/kg: Mus musculus, P388, iv, survival vs vehicle, read-out: T/C (%)
Protocol: i) Anti-tumor effect of the compound of the present invention on mice subcutaneously inoculated with P388 mouse leukemia cells.
Experiment was performed with CDF1 female mice (6 weeks) purchased from NIPPON SLC K.K., which were divided into groups consisting of 5 animals. […]. In this connection, lentinan and picibanil were administered intravenously on days 1, 3, 5, 7 and 9 after implantation, and sizofilan was administered subcutaneously on days 1 through 9. Statistical analysis was performed according to the Mann-Whiteney test.

[2] = system: mouse bone marrow cells; assay: In vitro mouse bone marrow cell-proliferation-promoting effect (3H-TdR uptake); assay type: cell-based, mouse (BDF1 female); conditions: Mus musculus, Bone marrow cell, 96 h, 4 days, read-out: Uptake of 3H-TdR (% of control), bone marrow cells; for activity at 0.1 µg/mL: 10^-1 μg/ml; for activity at 0.01 µg/mL: 10^-2 μg/ml
Protocol: In vitro mouse bone marrow cell-proliferation-promoting effect of the present compound
Experiment was performed with BDF1 female mice (6 weeks old) purchased from NIPPON SLC K.K. Bone marrow cells were removed from the femoral bone of mice by the conventional manner, floated on 10% FCS RPMI 1640, layered over Lympholite M, and centrifuged to give a monocyte fraction. 1×10^6 cells/ml of the monocyte fraction was suspended in 10% FCS RPMI 1640. The cell suspension (100 μl/well) and a vehicle or sample (10 μl/well) which was prepared so as to have a final level shown in Table 2 were added into a wells of round-bottomed 96 well plate, and cultured under the condition of 5% CO2 at 37° C. for 4 days. 0.5 μCi/well of ^3 H-thymidine (^3 H-TdR) was added. After 6 hours, the cells were harvested, and the amount of ^3 H-TdR uptaken into nucleus was measured by a liquid scintillation counter. The ratio of the uptake of ^3 H-TdR in the sample group to that in the vehicle group was calculated and used as the activation rate for promoting in vitro mouse bone marrow cell growth.

[3] = system: mouse splenic lymphocyte; assay: In vitro mouse splenic lymphocyte-proliferation-stimulating effect (3H-TdR uptake); assay type: cell-based, mouse (BDF1 female); conditions: Mus musculus, Splenic lymphocyte, 48 h, 2 days, read-out: Uptake of 3H-TdR (% of control), splenic lymphocytes; for activity at 1 µg/mL: 10^0 μg/ml; for activity at 0.1 µg/mL: 10^-1 μg/ml; for activity at 0.01 µg/mL: 10^-2 μg/ml; for activity at 0.001 µg/mL: 10^-3 μg/ml
Protocol: i) In vitro mouse splenic lymphocyte growth promoting effects of the present compounds
Experiment was performed with BDF1 female mice (6 weeks old) purchased from NIPPON SLC K.K. Spleens were removed from mice, and spleen cells were brayed with slide glasses and hemolized with NH4 Cl. 2×10^6cells/ml of the spleen cells which had been hemolized were suspended in 10% FCS RPMI 1640. The cell suspension (100 μl/well) and a vehicle or sample (10 μl/well) which was prepared so as to have a final level shown in Table 3 were added into wells of a round-bottomed 96 well plate, and cultured under the condition of 5% CO2 at 37° C. for 2 days. 0.5 μCi/well of ^3 H-thymidine (^3 H-TdR) was added. After 6 hours, the cells were harvested, and the amount of ^3 H-TdR uptaken into nucleus was measured by a liquid scintillation counter. The ratio (%) of the uptake of ^3 H-TdR in the sample group to that in the vehicle group was calculated and used as the in vitro mouse splenic lymphocyte-proliferation-stimulating rate.

[4] = system: mixed lymphocyte culture reaction (spleen cells of C57BL/6 and BALB/C mice); assay: Mixed lymphocyte culture reaction (MLR); assay type: cell-based, mouse (C57BL/6 stimulator, BALB/C responder); conditions: Mus musculus, Lymphocyte, 42 hours, read-out: MLR activating rate (%); for activity at 1 µg/mL: 1 × 10^0 μg/ml; for activity at 0.1 µg/mL: 1 × 10^-1 μg/ml
Protocol: ii) Mixed lymphocyte culture reaction (MLR) of the compounds of the present invention
Spleen cells were prepared from C57BL/6 mice and treated with 50 μg/ml of mitomycin C for 30 minutes. The treated cells were used as stimulator cells, and the spleen cells of BALB/C mice as responder cells. 2×10^6 cells/ml of the both spleen cells were suspended in 10% FCS RPMI1640 as a culture medium. The above-described cells (50 μl/well) and a sample (10 μl/well) were added into wells of a round-bottomed 96 well plate, and cultured under the condition of 5% CO2 at 37° C. for 42 hours. 0.5 μCi/well of ^3 H-thymidine (^3 H-TdR) was added. After 8 hours, the cells were harvested, and the amount of uptaken ^3 H-TdR was measured by a liquid scintillation counter to calculate the ratio (%) of the uptake of ^3 H-TdR in the sample group to that in the vehicle group as the MLR activating rate.

Row | Structure (SMILES) | Survival days ave. ± s. d. [1] | response vs control in vivo at 0.1 mg/kg [1] | activity at 0.1 µg/mL [2] | activity at 0.01 µg/mL [2] | activity at 1 µg/mL [3] | activity at 0.1 µg/mL [3] | activity at 0.01 µg/mL [3] | activity at 0.001 µg/mL [3] | activity at 1 µg/mL [4] | activity at 0.1 µg/mL [4] | life-span-prolonging effect (anti-tumor effect), in words ([1]; P388 s.c. system)
1 | CCCCCCCCCCCCCCCCCCCCCC[C@@H](O)C(=O)N[C@@H](CO[C@H]1O[C@H](CO)[C@H](O)[C@H](O[C@@H]2O[C@@H]([C@H](O)CO)[C@H](O)[C@H]2O)[C@H]1O)[C@H](O)[C@H](O)CCCCCCCCCCCC [Compound 12, O-β-D-galactofuranosyl-(1→3)-O-α-D-galactopyranosyl-(1→1)-(2S,3S,4R)-2-amino-N-[(R)-2-hydroxytetracosanoyl]-1,3,4-hexadecanetriol] | 13.8 ± 0.8 days | 108% | 381% | 378% | 509% | 982% | 772% | 113% | 203% | 187% | 
2 | CCCCCCCCCCCCCCCCCCCCCC[C@@H](O)C(=O)N[C@@H](CO[C@H]1O[C@H](CO)[C@H](O)[C@H](O[C@@H]2O[C@@H]([C@H](O)CO)[C@H](O)[C@H]2O)[C@H]1O)[C@H](O)[C@H](O)CCCCCCCCCCCCC [Compound 14, O-β-D-galactofuranosyl-(1→3)-O-α-D-galactopyranosyl-(1→1)-(2S,3S,4R)-2-amino-N-[(R)-2-hydroxytetracosanoyl]-1,3,4-heptadecanetriol] | 13.8 ± 0.4 days | 108% | 838% | 659% | 640% |  |  | 252% | 261% | 232% | 
3 | CCCCCCCCCCCCCCCCCCCCCCCCCC(=O)N[C@@H](CO[C@H]1O[C@H](CO)[C@@H](O[C@H]2O[C@H](CO)[C@@H](O)[C@H](O)[C@H]2O)[C@H](O)[C@H]1O)[C@H](O)[C@H](O)CCCCCCCCCCCCCC [Compound 35, O-α-D-glucopyranosyl-(1→4)-O-α-D-glucopyranosyl-(1→1)-(2S,3S,4R)-2-amino-N-hexacosanoyl-1,3,4-octadecanetriol] | 14.8 ± 1.3 days | 116% | 223% | 148% | 431% | 874% | 803% | 538% | 165% | 133% | intensive anti-tumor effects almost in the same level as that of Compound b
4 | CCCCCCCCCCCCCCCCCCCCC[C@@H](O)C(=O)N[C@@H](CO[C@H]1O[C@H](CO)[C@H](O)[C@H](O[C@@H]2O[C@@H]([C@H](O)CO)[C@H](O)[C@H]2O)[C@H]1O)[C@H](O)[C@H](O)CCCCCCCCCCCC [Compound 11, O-β-D-galactofuranosyl-(1→3)-O-α-D-galactopyranosyl-(1→1)-(2S,3S,4R)-2-amino-N-[(R)-2-hydroxytricosanoyl]-1,3,4-hexadecanetriol] | 13.4 ± 0.5 days | 105% | 410% | 281% | 646% |  | 858% | 116% | 225% | 258% | 
5 | CCCCCCCCCCCCCCCCCCCC[C@@H](O)C(=O)N[C@@H](CO[C@H]1O[C@H](CO)[C@H](O)[C@H](O[C@@H]2O[C@@H]([C@H](O)CO)[C@H](O)[C@H]2O)[C@H]1O)[C@H](O)[C@H](O)CCCCCCCCCCCC [Compound 10, O-β-D-galactofuranosyl-(1→3)-O-α-D-galactopyranosyl-(1→1)-(2S,3S,4R)-2-amino-N-[(R)-2-hydroxydocosanoyl]-1,3,4-hexadecanetriol] | 13.8 ± 0.4 days | 108% | 286% | 147% | 509% | 375% | 277% | 102% | 174% | 132% | 
6 | CCCCCCCCCCCCCCCCCCCCCC[C@@H](O)C(=O)N[C@@H](CO[C@H]1O[C@H](CO)[C@H](O)[C@H](O[C@@H]2O[C@@H]([C@H](O)CO)[C@H](O)[C@H]2O)[C@H]1O)[C@H](O)[C@H](O)CCCCCCCCCCCCC(C)C [Compound 17, O-β-D-galactofuranosyl-(1→3)-O-α-D-galactopyranosyl-(1→1)-(2S,3S,4R)-2-amino-N-[(R)-2-hydroxytetracosanoyl]-17-methyl-1,3,4-octadecanetriol] | 14.8 ± 0.8 days | 116% | 592% |  | 781% |  |  | 767% | 283% | 242% | 
7 | CCCCCCCCCCCCCCCCCCCCCC[C@@H](O)C(=O)N[C@@H](CO[C@H]1O[C@H](CO)[C@H](O)[C@H](O[C@@H]2O[C@@H]([C@H](O)CO)[C@H](O)[C@H]2O)[C@H]1O)[C@H](O)[C@H](O)CCCCCCCCCCC(C)C [Compound 13, O-β-D-galactofuranosyl-(1→3)-O-α-D-galactopyranosyl-(1→1)-(2S,3S,4R)-2-amino-N-[(R)-2-hydroxytetracosanoyl]-15-methyl-1,3,4-hexadecanetriol] | 14.6 ± 0.5 days | 114% | 546% | 395% | 788% |  |  | 227% | 276% | 248% | 
8 | CCCCCCCCCCCCCCCCCCCCCC[C@@H](O)C(=O)N[C@@H](CO[C@H]1O[C@H](CO)[C@H](O)[C@H](O[C@@H]2O[C@@H]([C@H](O)CO)[C@H](O)[C@H]2O)[C@H]1O)[C@H](O)[C@H](O)CCCCCCCCCCCCCC [Compound 16, O-β-D-galactofuranosyl-(1→3)-O-α-D-galactopyranosyl-(1→1)-(2S,3S,4R)-2-amino-N-[(R)-2-hydroxytetracosanoyl]-1,3,4-octadecanetriol] | 14.8 ± 0.8 days | 116% | 325% | 296% | 740% |  |  | 702% | 274% | 262% | 
